Key:
wild-type MtuDAH7PS [1] = biological target: T1, wild-type MtuDAH7PS (Mycobacterium tuberculosis, UniProt O53512); conditions: cited from earlier work
MtuDAH7PSF227D = MtuDAH7PSF227D (Mycobacterium tuberculosis, UniProt O53512, F227D); format: biochemical
MtuDAH7PSG232P = MtuDAH7PSG232P (Mycobacterium tuberculosis, UniProt O53512, G232P); format: biochemical
wild-type MtuDAH7PS [2] = biological target: T1, wild-type MtuDAH7PS; format: biochemical

SMILES	inhibition of wild-type enzyme by single amino acid, unsaturated E4P (wild-type MtuDAH7PS [1])	inhibition of dimeric variant MtuDAH7PSF227D (MtuDAH7PSF227D)	inhibition of dimeric variant MtuDAH7PSG232P (MtuDAH7PSG232P)	inhibition of wild-type enzyme (wild-type MtuDAH7PS [2])
N[C@@H](Cc1ccccc1)C(=O)O [Phe, L-Phe]	50%	50%	50%	–
N[C@@H](Cc1ccc(O)cc1)C(=O)O [Tyr, L-Tyr]	47%	40%	40%	no inhibition
